In brackets after ≈: the same amount, converted by molar mass. Where two headings read alike, the source gives them in different places.
Columns and labels:
[1] = test system: LPS-induced IL-1β release; experiment: LPS-induced IL-1β release, NR8383 cells, ELISA; format: cell-based; conditions: Rattus norvegicus, 8-hour exposure, read-out: IC50, inhibition of LPS-induced IL-1β release
Staph. spp. coagulase- = experiment: Broth microdilution MIC; format: cell-based; conditions: Staph. spp. coagulase-; 2-3 isolates/organism; read-out: MIC
[2] = test system: human liver cell line (HepG2)
[3] = test system: S. aureus and coagulase-negative staphylococci; experiment: Broth microdilution MIC, defined phenotypes in Staphylococcus species
[4] = test system: human erythrocytes (RBCs)
[5] = test system: dextran sulfate sodium (DSS) induced colitis; experiment: Mouse DSS colitis model; format: in vivo, mice
[6] = test system: Rift Valley fever virus (RFFV); format: cell-based; conditions: Vero; 10, 25 and 50 μM; virus treated only; 24 hpi
[7] = test system: stationary phase cultures of MSSA and MRSA; experiment: Time-kill against stationary phase cultures of MSSA and MRSA; format: cell-based, Staph. aureus; conditions: stationary phase MSSA and MRSA; 2×MIC
Enterobacter cloacae = experiment: Broth microdilution MIC; format: cell-based; conditions: 2-3 isolates/organism, read-out: MIC
SARS-CoV-2 [8] = conditions: Calu-3; 10 μM; 24 hpi
[9] = test system: LPS-induced TNF-α release; experiment: LPS-induced TNF-α release, THP-1 cells, ELISA; format: cell-based; conditions: Homo sapiens, 8-hour exposure, read-out: IC50, inhibition of LPS-induced TNF-α release
[10] = test system: LPS-induced MCP-1 release; experiment: LPS-induced MCP-1 release, NR8383 cells, ELISA; format: cell-based; conditions: Rattus norvegicus, 8-hour exposure, read-out: IC50, inhibition of LPS-induced MCP-1 release
Strept. pneumoniae = experiment: Broth microdilution MIC; format: cell-based; conditions: Streptococcus pneumoniae; Strept. pneumoniae; 2-3 isolates/organism; read-out: MIC
Escherichia coli = experiment: Broth microdilution MIC; format: cell-based; conditions: 2-3 isolates/organism, read-out: MIC
Entero. faecium (VRE) = experiment: Broth microdilution MIC; format: cell-based; conditions: Enterococcus faecium; Entero. faecium (VRE); 2-3 isolates/organism; read-out: MIC
Citrobacter koseri = experiment: Broth microdilution MIC; format: cell-based; conditions: 2-3 isolates/organism, read-out: MIC
[11] = test system: LPS-induced TNF-α release; experiment: LPS-induced TNF-α release, NR8383 cells, ELISA; format: cell-based; conditions: Rattus norvegicus, 8 h; read-out: IC50, inhibition of LPS-induced TNF-α release
[12] = test system: luciferase-expressing pseudotyped virus (rVSV) containing the SARS-CoV-2 spike protein; format: cell-based
[13] = test system: mammalian cells (RBCs, 3T3, HepG2); format: cell-based
[14] = test system: LPS-induced MMP-9 release; experiment: LPS-induced MMP-9 release, NR8383 cells, ELISA; format: cell-based; conditions: Rattus norvegicus, 8-hour exposure, read-out: IC50, inhibition of LPS-induced MMP-9 release
Acinetobacter spp. = experiment: Broth microdilution MIC; format: cell-based; conditions: 2-3 isolates/organism
Pseud. aeruginosa = experiment: Broth microdilution MIC; format: cell-based; conditions: Pseudomonas aeruginosa; Pseud. aeruginosa; 2-3 isolates/organism; read-out: MIC
Vero cells = conditions: 24 hours
Staph. saprophyticus = experiment: Broth microdilution MIC; format: cell-based; conditions: Staphylococcus saprophyticus; Staph. saprophyticus; 2-3 isolates/organism; read-out: MIC
SARS-CoV-2 [15] = experiment: SARS-CoV-2 testing in Caco-2 cells and primary lung fibroblasts; format: cell-based; conditions: Caco-2 cells and primary lung fibroblasts from human donors; data not shown
[16] = test system: embryonic mouse cell line (NIH/3T3)
[17] = brilacidin 400 mg/kg, 5-ASA 50 mg/kg per rectum, vs DSS-treated control group, end of study

SMILES: N=C(N)NCCCCC(=O)Nc1cc(C(F)(F)F)cc(NC(=O)c2cc(C(=O)Nc3cc(C(F)(F)F)cc(NC(=O)CCCCNC(=N)N)c3OC3CCNC3)ncn2)c1OC1CCNC1 (centres unmarked) [brilacidin]
- IC50 [1]: 702 nM
- MIC (Staph. spp. coagulase-): 0.25 to 0.5 µg/mL (≈ 0.267 to 0.534 µM)
- Selectivity (EC50/MIC) HepG2 [2]: 1,031
- Brilacidin MIC ([3]; DAP-NS, OXA-R, 5 isolates): 0.5-2
- Brilacidin MIC ([3]; Drug-Susceptible, 217 isolates): 0.25-1
- Brilacidin MIC ([3]; LZD, OXA-R, 5 isolates): 0.5-1
- Brilacidin MIC ([3]; OXA-R, 161 isolates): 0.25-2
- Brilacidin MIC ([3]; VRSA/VISA, DAP-NS, OXA-R, 3 isolates): 0.5-1
- Brilacidin MIC ([3]; VRSA/VISA, OXA-R, 7 isolates): 0.5-1
- Selectivity (EC50/MIC) RBCs [4]: 558
- rectal bleeding ([5]; 400 mg/kg per rectum Days 7-11, by Day 11 vs DSS-treated control group): significant decrease
- stool consistency ([5]; 400 mg/kg per rectum Days 7-11, vs DSS-treated control group): significantly more firm
- mean reduction in IL-1β in distal colon tissue [5, 17]: 27%
- mean reduction in IL-6 in distal colon tissue [5, 17]: 40%
- inhibition compared to the DMSO-control [6]: dose-dependent inhibition
- time-kill at >10^3 Log10 Reductions [7]: ≤ 2 hours
- MIC (Enterobacter cloacae): 0.5 to 4 µg/mL (≈ 0.534 to 4.27 µM)
- decrease in the viral genomic copies (SARS-CoV-2 [8]): 33%
- IC50 [9]: 23400 nM
- IC50 [10]: 750 nM
- MIC (Strept. pneumoniae): 4 to 8 µg/mL (≈ 4.27 to 8.54 µM)
- MIC (Escherichia coli): 1 to 2 µg/mL (≈ 1.07 to 2.13 µM)
- MIC (Entero. faecium (VRE)): 1 µg/mL (≈ 1.07 µM)
- MIC (Citrobacter koseri): 1 to 2 µg/mL (≈ 1.07 to 2.13 µM)
- IC50 [11]: 442 nM
- intracellular spike protein signal [12]: decreased intracellular spike protein signal
- folds more selective than natural HDPs [13]: 50 to 100 folds
- IC50 [14]: 2300 nM
- MIC (Acinetobacter spp.): 4 µg/mL (≈ 4.27 µM)
- MIC (Pseud. aeruginosa): 32 µg/mL (≈ 34.2 µM)
- cell viability compared to the DMSO vehicle control (Vero cells; concentrations higher than 40 μM): dose-dependent, statistically significant decrease in cell viability
- cell viability compared to the DMSO vehicle control (Vero cells; up to 40 μM): did not affect cell viability
- MIC (Staph. saprophyticus): 0.25 to 0.5 µg/mL (≈ 0.267 to 0.534 µM)
- inhibitory properties in ACE2 positive cell lines (SARS-CoV-2 [15]): supported brilacidin's inhibitory properties
- Selectivity (EC50/MIC) 3T3 [16]: 430
